1 compound from US11596626B2, “Compound for use against pathogenic Neisseria and Haemophilus species and Moraxella catarrhalis” (priority 2017, dated 2023) can be followed below.

The subject of data set [1] is Commensal Neisseria. The data set can be described thus: Growth inhibition by area under the growth curve relative to solvent. It is filed as cell-based. The conditions noted are these: 5-50 μM, FIG. 5. On the procedure:
Before every experiment, bacteria were pre-cultured in 5 ml liquid medium for at least 2 hours then harvested and resuspended in PBS (phosphate buffered saline). Optical density (OD) was determined and a volume equal to an OD of 0.2 was inoculated into 5 ml of the respective medium. NQNO was added at the indicated amounts (5-50 μM). DMSO level was adjusted to 1% of final concentration. Samples were incubated for either 10.5 hours, until they reached stationary phase (three measured values in stationary phase) or until they reached an OD of 2.5. Optical density was determined every 0.5 h.
Growth experiments with the compounds represented by the Formulas (4) to (7) were conducted against various bacteria, including clinical isolates of N. gonorrhoeae including high priority 3rd generation cephalosporin/fluoroquinolone-resistant strains, strains isolated from disseminated disease settings, and commensal Neisseria and other commensal bacteria and evaluated (FIGS. 5 and 11). Growth of the indicated bacteria was measured as described in Example 1. Growth inhibition was quantified by measuring the “area under the curve” in the presence of the indicated concentrations of the respective compound (5-50 μM) relative to growth in the presence of the solvent only. Black areas indicate growth inhibition with <30% growth compared to control.

In data set [2] the test system is Neisseria macacae. Put plainly: Growth curves in liquid culture (optical density) vs DMSO control. Format: cell-based. As to conditions: 5-50 μM, FIG. 3. On the procedure: (§1) Growth experiments with NQNO were conducted against Neisseria gonorrhoeae strain MS11 (Edwards, M., et al., Antigenic analysis of gonococcal pili using monoclonal antibodies, J Exp Med, 1984. 160(6): p. 1782-91) and a multidrug-resistant N. gonorrhoeae isolate from Slovenia (Unemo M, Golparian O, Potočnik M, Jeverica S. Treatment failure of pharyngeal gonorrhoea with internationally recommended first-line ceftriaxone verified in Slovenia, September 2011. Euro Surveill. 2012; 17(25):pii=20200), Neisseria macacae, and Lactobacillus brevis. The bacteria were inoculated in GC (Difco™ GC medium Ref. 228950, BD Becton Dickinson) and PPM broth (15 g/L Proteon Pepton, 1 g/L soluble starch, 5 g/L NaCl, 4 g/L KH2PO4, 1 g/L K2HPO4, pH 7.5) (Neisseriae) or TSB (BBL™ Trypticase Soy Broth Ref 211768, BD Becton Dickinson) (Lactobacillus) supplemented with solvent (DMSO) or the indicated concentrations of NQNO (5-50 04) and their growth at 37° C. was monitored over the course of 10 h by optical density readings in 30 minute intervals.
(§2) Neisseria strains were cultured in PPM medium (15 g/l Proteon Pepton, 1 g/l soluble starch, 5 g/l NaCl, 4 g/l KH2PO4, 1 g/l K2HPO4, pH 7.5) for liquid culture and on GC plates (BD Difco™ GC Medium Base) supplemented with 1% vitamin mix (100 g/l glucose, 10 WI glutamine, 26 g/l L-cystein, 100 mg/l carboxylase, 250 mg/l NAD, 500 μl Fe(NO3)3, 150 mg/l arginine, 3 mg/l thiamine-HCl, 10 mg/l vitamine B12, 13 mg/I p-amino benzoic acid, 1.1 g/l L-cystin, 1 g/l adenine; 500 mg/l uracil, 30 mg/I guanine). […]
(§3) Before every experiment, bacteria were pre-cultured in 5 ml liquid medium for at least 2 hours then harvested and resuspended in PBS (phosphate buffered saline). Optical density (OD) was determined and a volume equal to an OD of 0.2 was inoculated into 5 ml of the respective medium. […] Samples were incubated for either 10.5 hours, until they reached stationary phase (three measured values in stationary phase) or until they reached an OD of 2.5. Optical density was determined every 0.5 h.

Data set [3] concerns Neisseria gonorrhoeae strain MS11. Described as above. Format: cell-based. As to the method:
as §1, §2, §3

Data set [4] deals with MS74 cells. The data set can be described thus: Microscopic evaluation of treated cells. Format: cell-based, human. As to conditions: up to 50 μM, 2 days, FIG. 14. An excerpt:
FIG. 14: Microscopic evaluation of MS74 cells treated for two days with the indicated concentrations of NQNO compared to DMSO control.

Data set [5] concerns N. gonorrhoeae. The data set can be described thus: Vaginal colonization of CEAtg female mice, re-isolation of gonococci by swab. Format: in vivo, Neisseria gonorrhoeae. On the procedure:
By using genetically modified mice (CEA-transgenic; CEAtg mice), which express a human receptor for the gonococcal Opa-adhesin on their mucosal surface, it is possible to study the initial colonization of the upper genital tract by N. gonorrhoeae and to re-isolate these pathogens after intra-vaginal challenge (FIG. 7). 6 to 8 week old, female wildtype (black) or CEA-transgenic (CEAtg, red) mice were infected with N. gonorrhoeae. 2 h after infection, the animals were treated with 20 μl buffer containing solvent (DMSO) or 50 μM NQNO (Compound represented by the Formula (5)). 20 h later, vaginal swaps were taken and plated on selective agar. Each dot refers to bacteria isolated from an individual animal (n≥5) (cf. FIG. 7). […]
In a further experiment, experimental vaginal infection of female mice with N. gonorrhoeae was performed as previously described in the literature (P. Muenzner, V. Bachmann, J. Hentschel, W. Zimmermann, C. R. Hauck, Human-restricted bacterial pathogens block shedding of epithelial cells by stimulating integrin activation. Science 329, 1197-1201 (2010)). […] Serial dilutions of re-isolated bacteria were plated on GC agar containing chloramphenicol (10 μg/ml) and erythromycin (7 μg/ml) and the colonies were counted after 20 h of incubation at 37° C., 5% CO2.

“Also recorded” adds a separate entry of the source.

As for `CCCCCCCCCc1cc(=O)c2ccccc2n1O` [NQNO, 1-Hydroxy-2-nonylquinolin-4(1H)-one], the “Growth inhibition (area under the curve relative to solvent)” value in data set [1] is listed as “not compromised”. Also, in data set [2], the Effect on growth result is “did not compromise the growth”. Further, the “Concentration leading to complete abrogation of gonococcal growth in vitro” value in data set [3] (N. gonorrhoeae MS11, 37° C., growth monitored over 10 h, FIG. 1) was not above 5 µM; in data set [3] (N. gonorrhoeae MS11, mass concentration given for 5 μM), less than 1.4 µg/mL. In addition, the “Morphology and overall phenotype of cells” value in data set [4] is recorded as “did not change”. Moreover, the “Number of re-isolated gonococci (vaginal colonization)” value in data set [5] (CEAtg female mice, 20 μl of 50 μM topical 2 h after infection, swabs 20 h later, FIG. 7) is recorded as “significantly (***; p<0.001) reduces the number of re-isolated gonococci; also recorded: completely blocks vaginal colonization”. Besides, the “Re-isolated gonococci from the genital tract” value in data set [5] (CEAtg mice, 10 μl of 25 μM or 50 μM intravaginally 1 h after infection, swabs 24 h later, FIG. 15) is “hardly any gonococci could be re-isolated”.
